Data as given in article PMC4655410, “Hepatitis B virus efficiently infects non-adherent hepatoma cells via human sodium taurocholate cotransporting polypeptide” (Scientific Reports, 2015).
“Also recorded” adds a separate entry of the source. Where two headings read alike, the source gives them in different places.

Tests used:
HepG2/NTCPA3 cells = assay: in vitro
Experimental: (§1) Cell viability was evaluated using the MTS assay system (CellTiter 96 AQueous One Solution Cell Proliferation Assay, Promega, Madison, WI, USA).
(§2) real-time qRT-PCR in cells harvested at 6 dpi (black bars). Cell viability was measured
(§3) by the MTS assay (black line with a triangle). i. […]
(§4) non-adherent phase (black columns) in the presence of 0, 10 or 30 nM proscillaridin A. […]

in vitro = settings: human
Experimental: as §1, §2, §3, §4

HBV [1] = assay: Inhibition of HBV infection of non-adherent HepG2/NTCPA3 cells (intracellular HBV RNA, real-time qRT-PCR); assay type: cell-based, Hepatitis B virus (genotype D); settings: for IC50: Hepatitis B virus, read-out: IC50 (anti-HBV activity); for Selectivity Index: SI from CC50 and IC50
Experimental: In the case of the non-adherent cell conditions of infection, HepG2 cells, the derived cells, or differentiated HepaRG cells were harvested using 0.25% trypsin/ethylenediaminetetraacetic acid (EDTA) solution (Sigma). After washing once with 10% FBS-DMEM, the resulting cells were suspended in the primary hepatocyte maintenance medium (PMM) consisting of William’s E medium (Sigma) supplemented with 2 mM L-glutamine, 5 μg/ml transferrin (Sigma), 10 ng/ml recombinant human epidermal growth factor (PeproTech, Rocky Hill, NJ, USA), 3 μg/ml insulin, 18 μg/ml hydrocortisone, 40 ng/ml dexamethasone (Sigma), 5 ng/ml sodium selenite (Sigma), 2% DMSO (Wako), 100 U/ml penicillin, and 100 μg/ml streptomycin (Gibco). The suspended cells (1.25 × 10^5 cells) were added to each well following the addition of virus, and were then immediately mixed well in 0.5 ml of PMM supplemented with 4% polyethylene glycol (PEG) 8000 (Sigma) and 2% FBS in each well of a 24-well collagen-coated plate. The resulting mixtures were incubated at 37 °C (0 days post-infection, dpi).
The cells infected in non-adherent or adherent phase were washed three times with phosphate-buffered saline (PBS) at 1 dpi and incubated in fresh PMM supplemented with 10% FBS. The cells were re-seeded at 2 dpi at a density of 2 × 10^4 cells/well (48-well collagen-coated plate) or 4 × 10^4 cells/well (24-well collagen-coated plate) and maintained in PMM supplemented with 10% FBS. The cells and the culture supernatants were collected at each indicated dpi in order to evaluate the amounts of viral proteins, RNA, and DNA.
Simvastatin, proscillaridin A, bufalin, convallatoxin, digitoxin, digoxin, and azelastine were purchased from Sigma. Fluvastatin was from Cayman Chemical Co. (Ann Arbor, MI, USA). The lipopeptide myr-47WT, which is an N-terminally myristoylated peptide consisting of aa 2 to 47 of the preS1 region of HBV, and myr-47N9K, in which Asn at the 9th position is substituted with Lys, were synthesized by Scrum Co. (Tokyo, Japan)[11]. […] These cells (1 × 10^6 cells/ml) were preincubated at room temperature for 1 h in PMM supplemented with a peptide at 400 nM or a compound at the indicated concentration, and were then infected with HBV at 1,000 GEq/cell in the presence of the preS1 peptide or compounds at the same concentration as in the preincubation. The resulting cells were washed three times with PBS at 1 dpi and incubated in fresh PMM supplemented with 10% FBS. Cells were then re-seeded at 2 dpi at a density of 2 × 10^4 cells/well (48-well plate) or 4 × 10^4 cells/well (24-well plate) and maintained in PMM supplemented with 10% FBS. The resulting cells and culture supernatants were collected at each indicated dpi in order to evaluate viral RNA and DNA.
(§5) Total RNA was extracted using the RNeasy Mini Kit (Qiagen, Valencia, CA, USA), followed by DNase digestion using the TURBO DNA-free kit (Ambion, Austin, TX, USA). The resulting RNA preparation was reverse-transcribed using ReverTra Ace qPCR RT Master Mix (TOYOBO, Tokyo, Japan) according to the manufacturer’s protocol. Viral DNA was extracted from culture supernatants using the QIAamp DNA Mini Kit (Qiagen) according to the manufacturer’s protocol. The amounts of viral DNA and RNA were measured by real-time quantitative PCR (qPCR) and real-time quantitative reverse transcriptase (qRT)-PCR, respectively. The amounts of intracellular HBV RNA and supernatant HBV DNA were estimated according to the method described by Yan et al.[11]. The amounts of NTCP and GAPDH mRNAs were estimated by real-time qRT-PCR using the primer pairs 5′-[…]-3′ and 5′-[…]-3′, and 5′-[…]-3′ and 5′-[…]-3′, respectively. Real-time PCR was carried out using the Fast SYBER Green Master Mix (Applied BioSystems) and StepOne Plus Real-Time PCR System (Applied BioSystems). The amounts of HBs and HBe antigens in culture supernatants were estimated by a chemiluminescent immunoassay (SRL Inc., Tokyo, Japan).
Supplementary Figure 4. […]

HBV [2] = assay: Effect on HBV replication, compound added after infection (intracellular HBV RNA); assay type: cell-based, Hepatitis B virus (genotype D); settings: compound added at 3 dpi, harvested at 6 dpi, HepG2/NTCPA3, HBV 1,000 GEq/cell
Experimental: The resulting cells were harvested at 6 dpi. The amount of intracellular HBV RNA was quantified by real-time qRT-PCR (black bars) and is presented as the percentage of the control value (DMSO). Cell viability was evaluated (gray bars). Data were calculated from 3 to 5 independent experiments and are expressed as means ± SD.
as §5, with “The amounts of HBs and HBe antigens in culture supernatants were estimated by a chemiluminescent immunoassay (SRL Inc., Tokyo, Japan).” left out

NTCP [3] = settings: read-out: IC50 for inhibition of NTCP-mediated taurocholic acid uptake; cited from earlier work
HBV [4] = assay: Supernatant HBe antigen after HBV infection in the presence of compound (chemiluminescence immunoassay); assay type: cell-based, Hepatitis B virus (genotype D); settings: non-adherent HepG2/NTCPA3 cells, HBV 1,000 GEq/cell, supernatant at 12 dpi
Experimental: as §5
Cell viability was measured
Culture supernatants were collected at
antigen was quantified by a chemiluminescence immunoassay. j. HepG2/NTCPA3 cells

NTCP [5] = target: T1, NTCP (Homo sapiens, UniProt Q14973); assay: Competitive binding assay: compounds versus myr-47WT binding to HepG2/NTCPA3 cells (FACS); settings: compounds at 10 μM (proscillaridin A 10 to 100 μM)
T1 construct: expressed in transfected cells; plasmid pEF pGKpuro, puromycin selection
T1 sequence (Q14973 1-349): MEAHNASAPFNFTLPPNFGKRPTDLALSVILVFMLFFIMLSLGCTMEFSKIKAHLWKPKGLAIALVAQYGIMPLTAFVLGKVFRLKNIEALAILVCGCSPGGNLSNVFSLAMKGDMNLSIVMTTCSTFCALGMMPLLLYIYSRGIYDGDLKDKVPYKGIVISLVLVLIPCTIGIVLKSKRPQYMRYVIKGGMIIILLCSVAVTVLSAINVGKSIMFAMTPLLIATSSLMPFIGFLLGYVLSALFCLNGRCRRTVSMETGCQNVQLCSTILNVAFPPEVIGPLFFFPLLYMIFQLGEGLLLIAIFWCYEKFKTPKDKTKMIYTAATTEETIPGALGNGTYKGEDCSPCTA
Experimental: After washing twice with 2% FBS/PBS, the resulting cells were analyzed by FACS analysis.
Supplementary Figure 5. Effects of compounds on the binding ability of preS1 lipopeptide to HepG2/NTCPA3 cells. a and b. HepG2/NTCPA3 cells were pretreated with DMSO for 30 min and then were treated with myr-47N9K (a) or myr-47WT (b) in the presence of DMSO for an additional 30 min. The resulting cells were subjected to FACS analysis. c to h. HepG2/NTCPA3 cells were pretreated with the indicated concentration of each compound for 30 min and then were treated with myr-47WT in the presence of each compound for an additional 30 min. […]
fluvastatin (d), proscillaridin A (e, f and g), and azelastine (h) on preS1 binding were analyzed using FACS analysis, as described in the Materials and Methods section.
(1 picture or pasted object on this page, not shown here)

[6] = non-adherent HepG2/NTCPA3 cells, HBV 1,000 GEq/cell, compound from 1 h pre-infection to 1 dpi, HBV RNA at 6 dpi
[7] = non-adherent HepG2/NTCPA3 cells, compound from 1 h pre-infection to 1 dpi

For `CC(C)n1c(/C=C/C(O)CC(O)CC(=O)O)c(-c2ccc(F)cc2)c2ccccc21` (stereo not drawn) [Fluvastatin], the “Cytotoxicity (in words)” value (HepG2/NTCPA3 cells) was “not cytotoxic”, the CC50 (in vitro) was > 100000 nM and the IC50 (HBV [1]; [6]) was > 30000 nM. The “Inhibition of HBV infection (in words)” value (HBV [1]; [7]) was “did not inhibit; also recorded: not by treatment with fluvastatin”.

In the case of `C[C@H]1O[C@@H](O[C@H]2[C@@H](O)C[C@H](O[C@H]3[C@@H](O)C[C@H](O[C@H]4CC[C@@]5(C)[C@H](CC[C@@H]6[C@@H]5C[C@@H](O)[C@]5(C)[C@@H](C7=CC(=O)OC7)CC[C@]65O)C4)O[C@@H]3C)O[C@@H]2C)C[C@H](O)[C@@H]1O` [Digoxin], the CC50 (in vitro) is reported as 1430 ± 277 nM, the IC50 (HBV [1]; [6]) is reported as > 100 nM and the “Inhibition of HBV infection (in words)” value (HBV [1]; [7]) is reported as “did not inhibit HBV infection”.

In the case of `C[C@@H]1O[C@@H](O[C@H]2CC[C@]3(C=O)[C@H]4CC[C@]5(C)[C@@H](C6=CC(=O)OC6)CC[C@]5(O)[C@@H]4CC[C@]3(O)C2)[C@H](O)[C@H](O)[C@H]1O` [Convallatoxin], the CC50 (in vitro) is reported as 156 ± 53.8 nM, the IC50 (HBV [1]; HepG2, 1 h) is reported as 10.7 ± 3.6 nM and the “Selectivity Index” value (HBV [1]) is reported as 15.7 ± 4.7. The “Inhibition of HBV infection (in words)” value (HBV [1]; [7]) was “inhibited HBV infection in a dose-dependent manner”.

For `C[C@H]1O[C@@H](O[C@H]2[C@@H](O)C[C@H](O[C@H]3[C@@H](O)C[C@H](O[C@H]4CC[C@@]5(C)[C@H](CC[C@@H]6[C@@H]5CC[C@]5(C)[C@@H](C7=CC(=O)OC7)CC[C@]65O)C4)O[C@@H]3C)O[C@@H]2C)C[C@H](O)[C@@H]1O` [Digitoxin], the CC50 (in vitro) was 1730 ± 384 nM, the IC50 (HBV [1]; [6]) was 93.3 ± 15.3 nM and the “Selectivity Index” value (HBV [1]) was 18.9 ± 3.4. For the same molecule, the “Inhibition of HBV infection (in words)” value (HBV [1]; [7]) was “inhibited HBV infection in a dose-dependent manner”.

In the case of `C[C@]12CC[C@H](O)C[C@H]1CC[C@@H]1[C@@H]2CC[C@]2(C)[C@@H](c3ccc(=O)oc3)CC[C@]12O` [Bufalin], the CC50 (in vitro) is reported as 479 ± 64.7 nM, the IC50 (HBV [1]; HepG2, 1 h) is reported as 32.4 ± 11.3 nM and the “Selectivity Index” value (HBV [1]) is reported as 15.8 ± 4.3. For the same molecule, the “Inhibition of HBV infection (in words)” value (HBV [1]; [7]) was “inhibited HBV infection in a dose-dependent manner” and the “Inhibition of HBV infection (in words)” value (HBV [1]; non-adherent HepG2/NTCPA3 cells, compound from 1 h pre-infection to 1 dpi, listed as bufalin) was “inhibited HBV infection”.

With `CN1CCCC(n2nc(Cc3ccc(Cl)cc3)c3ccccc3c2=O)CC1` (stereo not drawn) [Azelastine] the CC50 (in vitro) was > 30000 nM, the IC50 (HBV [1]; [6]) was > 30000 nM and the “Inhibitory effect on HBV infection (in words)” value (HBV [1]; at 0.01 to 1 μM, non-adherent HepG2/NTCPA3 cells) was “moderate and significant inhibitory effects”.

In the case of `CCC(C)(C)C(=O)O[C@H]1C[C@@H](C)C=C2C=C[C@H](C)[C@H](CC[C@@H]3C[C@@H](O)CC(=O)O3)[C@H]21` [Simvastatin], the “Amount of HBV RNA in cells treated after infection” value (HBV [2]) is reported as “not decreased; also recorded: did not exhibit an inhibitory effect on the viral replication”, the CC50 (in vitro) is reported as > 30000 nM and the “Inhibition of HBV infection (in words)” value (HBV [1]) is reported as “inhibited HBV infection”. For the same molecule, the IC50 (HBV [1]; HepG2, 1 h) was 5200 ± 600 nM.

For `C[C@@H]1O[C@@H](O[C@@H]2C=C3CC[C@@H]4[C@H](CC[C@]5(C)[C@@H](c6ccc(=O)oc6)CC[C@]45O)[C@@]3(C)CC2)[C@H](O)[C@H](O)[C@H]1O` [Proscillaridin A], the IC50 (NTCP [3]) is listed as 22000 nM, the “Amount of supernatant HBe antigen” value (HBV [4]) is listed as “reduced” and the “Amount of HBV RNA in cells treated after infection” value (HBV [2]) is listed as “not decreased; also recorded: did not exhibit an inhibitory effect on the viral replication”. The CC50 (in vitro) was 496 ± 140 nM, the “Anti-HBV effect in non-adherent cells compared with adherent cells” value (HBV [1]; 0, 10 or 30 nM, HBV 1,000 GEq/cell, HBV RNA) was “similar” and the IC50 (HBV [1]; [6]) was 7.2 ± 2.5 nM. For the same molecule, the “Selectivity Index” value (HBV [1]) was 75.5 ± 26.7, the “Inhibition of HBV infection (in words)” value (HBV [1]; [7]) was “inhibited HBV infection” and the “Effect on binding of myr-47WT (200 nM) to the cell surface of HepG2/NTCPA3” value (NTCP [5]) was “negligible effect”.
